Test results reported in the supplement of paper PMC10307832.

Experiments:
Test in all cases: relative viability (nuclei count vs DMSO), 5 days (fraction); higher = more cells survive
Bleomycin + Pemetrexed = compound: CC1=C(N=C(N=C1N)[C@H](CC(=O)N)NC[C@@H](C(=O)N)N)C(=O)N[C@@H]([C@H](C2=CN=CN2)OC3C(C(C(C(O3)CO)O)O)OC4C(C(C(C(O4)CO)O)OC(=O)N)O)C(=O)N[C@H](C)[C@H]([C@H](C)C(=O)N[C@@H]([C@@H](C)O)C(=O)NCCC5=NC(=CS5)C6=NC(=CS6)C(=O)NCCC[S+](C)C)O [Bleomycin] + Nc1nc2[nH]cc(CCc3ccc(C(=O)N[C@@H](CCC(=O)O)C(=O)O)cc3)c2c(=O)[nH]1 [Pemetrexed] (partner 0.2 µM); conditions: main component drawn
Summary of the method: (§1)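 Relative viability equals treated-well nuclei counts divided by vehicle-well nuclei counts. Counts came from 4× images of lung cancer cell lines grown in 1536-well plates for 5 days after pin-tool dosing on the day after seeding. Dosing used one drug alone or a fixed anchor-drug dose plus five library-drug doses (not always all listed) in √10 steps, and values are medians of duplicate plates.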

Etoposide + OSI-027 = compound: COc1cc([C@@H]2c3cc4c(cc3[C@@H](O[C@@H]3O[C@@H]5CO[C@@H](C)O[C@H]5[C@H](O)[C@H]3O)[C@H]3COC(=O)[C@H]23)OCO4)cc(OC)c1O [Etoposide] + COc1cccc2cc(-c3nc([C@H]4CC[C@H](C(=O)O)CC4)n4ncnc(N)c34)[nH]c12 [OSI-027] (partner 0.5 µM)
Summary of the method: as §1

Bleomycin + Crizotinib = compound: CC1=C(N=C(N=C1N)[C@H](CC(=O)N)NC[C@@H](C(=O)N)N)C(=O)N[C@@H]([C@H](C2=CN=CN2)OC3C(C(C(C(O3)CO)O)O)OC4C(C(C(C(O4)CO)O)OC(=O)N)O)C(=O)N[C@H](C)[C@H]([C@H](C)C(=O)N[C@@H]([C@@H](C)O)C(=O)NCCC5=NC(=CS5)C6=NC(=CS6)C(=O)NCCC[S+](C)C)O [Bleomycin] + C[C@@H](Oc1cc(-c2cnn(C3CCNCC3)c2)cnc1N)c1c(Cl)ccc(F)c1Cl [Crizotinib] (partner 1 µM); conditions: main component drawn
Summary of the method: as §1

Bleomycin + Luminespib = compound: CC1=C(N=C(N=C1N)[C@H](CC(=O)N)NC[C@@H](C(=O)N)N)C(=O)N[C@@H]([C@H](C2=CN=CN2)OC3C(C(C(C(O3)CO)O)O)OC4C(C(C(C(O4)CO)O)OC(=O)N)O)C(=O)N[C@H](C)[C@H]([C@H](C)C(=O)N[C@@H]([C@@H](C)O)C(=O)NCCC5=NC(=CS5)C6=NC(=CS6)C(=O)NCCC[S+](C)C)O [Bleomycin] + CCNC(=O)c1noc(-c2cc(C(C)C)c(O)cc2O)c1-c1ccc(CN2CCOCC2)cc1 [Luminespib] (partner 0.01 µM); conditions: main component drawn
Summary of the method: as §1

Row | Cell Line | relative viability (Bleomycin + Pemetrexed; first compound 0.01 µM) | relative viability (Bleomycin + Pemetrexed; first compound 0.03162 µM) | relative viability (Bleomycin + Pemetrexed; first compound 0.1 µM) | relative viability (Bleomycin + Pemetrexed; first compound 0.3162 µM) | relative viability (Bleomycin + Pemetrexed; first compound 1 µM) | relative viability (Etoposide + OSI-027; first compound 0.01 µM) | relative viability (Etoposide + OSI-027; first compound 0.03162 µM) | relative viability (Etoposide + OSI-027; first compound 0.1 µM) | relative viability (Etoposide + OSI-027; first compound 0.3162 µM) | relative viability (Etoposide + OSI-027; first compound 1 µM) | relative viability (Bleomycin + Crizotinib; first compound 0.01 µM) | relative viability (Bleomycin + Crizotinib; first compound 0.03162 µM) | relative viability (Bleomycin + Crizotinib; first compound 0.1 µM) | relative viability (Bleomycin + Crizotinib; first compound 0.3162 µM) | relative viability (Bleomycin + Crizotinib; first compound 1 µM) | relative viability (Bleomycin + Luminespib; first compound 0.01 µM) | relative viability (Bleomycin + Luminespib; first compound 0.03162 µM) | relative viability (Bleomycin + Luminespib; first compound 0.1 µM) | relative viability (Bleomycin + Luminespib; first compound 0.3162 µM) | relative viability (Bleomycin + Luminespib; first compound 1 µM)
1 | NCI-H2023 | 0.178 | 0.204 | 0.157 | 0.136 | 0.0973 | 0.4 | 0.451 | 0.223 | 0.286 | 0.119 | 0.473 | 0.447 | 0.346 | 0.131 | 0.104 | 0.526 | 0.531 | 0.454 | 0.128 | 0.0778
2 | LC-2-ad | 0.267 | 0.265 | 0.251 | 0.254 | 0.219 | 0.81 | 0.839 | 0.473 | 0.42 | 0.25 | 0.428 | 0.404 | 0.326 | 0.226 | 0.275 | 0.68 | 0.572 | 0.563 | 0.29 | 0.262
3 | NCI-H1703 | – | – | – | – | – | – | – | – | – | – | 0.751 | 0.655 | 0.676 | 0.322 | 0.195 | – | – | – | – | –
4 | NCI-H1437 | 0.347 | 0.303 | 0.312 | 0.288 | 0.316 | 1.04 | 0.891 | 0.423 | 0.635 | 0.31 | 0.803 | 0.811 | 0.736 | 0.476 | 0.382 | 1.01 | 0.999 | 1 | 0.63 | 0.585
5 | SW 1573 | 0.755 | 0.691 | 0.572 | 0.44 | 0.225 | 0.707 | 0.593 | 0.277 | 0.265 | 0.116 | 0.713 | 0.604 | 0.711 | 0.402 | 0.227 | 0.508 | 0.616 | 0.118 | 0.174 | 0.116
6 | H3255 | 0.608 | 0.538 | 0.507 | 0.479 | 0.405 | 0.617 | 0.709 | 0.417 | 0.542 | 0.477 | 0.61 | 0.742 | 0.55 | 0.378 | 0.287 | 0.817 | 0.878 | 0.652 | 0.52 | 0.351
7 | Calu-6 | – | – | – | – | – | – | – | – | – | – | 0.514 | 0.394 | 0.379 | 0.141 | 0.181 | – | – | – | – | –
8 | HCC-366 | 0.169 | 0.207 | 0.178 | 0.0708 | 0.0498 | 0.911 | 1.16 | 0.466 | 0.374 | 0.0799 | 0.152 | 0.137 | 0.0986 | 0.0238 | 0.0225 | – | – | – | – | –
9 | HCC-78 | 0.895 | 0.969 | 0.88 | 0.832 | 0.826 | 0.387 | 0.392 | 0.345 | 0.376 | 0.281 | 0.31 | 0.294 | 0.297 | 0.229 | 0.267 | – | – | – | – | –
10 | EBC-1 | – | – | – | – | – | – | – | – | – | – | 0.204 | 0.193 | 0.2 | 0.198 | 0.151 | – | – | – | – | –
11 | NCI-H1623 | – | – | – | – | – | 0.438 | 0.497 | 0.386 | 0.413 | 0.322 | – | – | – | – | – | 0.396 | 0.474 | 0.525 | 0.343 | 0.31
12 | NCI-H2342 | 0.837 | 0.759 | 0.685 | 0.539 | 0.62 | 0.707 | 0.649 | 0.51 | 0.402 | 0.352 | – | – | – | – | – | 0.646 | 0.665 | 0.693 | 0.523 | 0.525
13 | SW 900 | 0.469 | 0.461 | 0.391 | 0.2 | 0.191 | 0.448 | 0.563 | 0.367 | 0.333 | 0.129 | – | – | – | – | – | 0.187 | 0.166 | 0.199 | 0.185 | 0.183
14 | NCI-H1793 | 0.739 | 0.729 | 0.692 | 0.134 | 0.191 | 0.243 | 0.325 | – | 0.246 | 0.209 | – | – | – | – | – | 0.169 | 0.157 | 0.286 | 0.175 | 0.153
15 | NCI-H1299 | – | – | – | – | – | – | – | – | – | – | 0.896 | 0.943 | 0.715 | 0.402 | 0.331 | – | – | – | – | –
16 | NCI-H1395 | 0.64 | 0.702 | 0.566 | 0.4 | 0.371 | 0.625 | 0.759 | 0.506 | 0.605 | 0.469 | – | – | – | – | – | 0.648 | 0.648 | 0.54 | 0.397 | 0.47
17 | NCI-H727 | – | – | – | – | – | 0.724 | 0.674 | – | 0.542 | 0.513 | 0.763 | 0.731 | 0.634 | 0.411 | 0.489 | 0.375 | 0.376 | 0.357 | – | 0.223
18 | NCI-H522 | 0.844 | 0.815 | 0.85 | 0.49 | 0.321 | 0.647 | 0.77 | 0.657 | 0.709 | 0.71 | – | – | – | – | – | 0.775 | 0.66 | 0.508 | 0.319 | 0.414
19 | A549 | – | – | – | – | – | – | – | – | – | – | 0.601 | 0.562 | 0.339 | 0.0813 | 0.0619 | – | – | – | – | –
20 | NCI-H1648 | 0.669 | 0.614 | 0.508 | 0.483 | 0.469 | – | 0.269 | 0.253 | 0.289 | 0.292 | – | – | – | – | – | – | – | – | – | –
21 | IA-LM | – | – | – | – | – | – | – | – | – | – | 0.502 | 0.64 | 0.476 | 0.523 | 0.29 | – | – | – | – | –
22 | ABC-1 | – | – | – | – | – | 0.529 | 0.564 | 0.339 | 0.361 | 0.179 | 0.799 | 0.769 | 0.659 | 0.191 | 0.161 | 0.578 | 0.737 | 0.561 | 0.198 | 0.225
